Source: patent US9889146B2, “Benzoxaborole compounds and uses thereof” (priority 2012, dated 2018)
Values after ≈ are worked out from the molar mass of the structure shown. Values joined by “and” are separate entries in the source; they are usually repeats but may differ in a detail not shown here. Identical values can stand only once. Like-named read-outs stand apart in the source and are kept apart here.

What was measured:
Format in all cases: cell-based
Enterobacteriaceae = test: organism not typed; details: Enterobacteriaceae
E. coli (ESBL) = test: microbe, parasite or virus in culture; details: Escherichia coli
[1] = test system: Enterobacter aerogenes (WT); test: microbe, parasite or virus in culture; details: Klebsiella aerogenes, Enterobacter aerogenes (WT)
[2] = test system: Enterobacter cloacae (WT); test: microbe, parasite or virus in culture
[3] = test system: Citrobacter freundii (AmpC); test: microbe, parasite or virus in culture; details: Citrobacter freundii
Proteus vulgaris (WT) = test: microbe, parasite or virus in culture; details: Proteus vulgaris (WT)
Providencia spp.(all) = test: microbe, parasite or virus in culture; details: Providencia spp.(all)
S. marcescens (AmpC) = test: microbe, parasite or virus in culture; details: Serratia marcescens
E. coli ATCC 25922 = test: Spontaneous frequency of resistance; details: 10 X MIC, 24 h
Procedure, shortened: (§1)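 Resistant mutants selected by plating varying inocula on MHBII noble agar with 4× or 10× MIC of GSK2251052, 24 and 48 h at 37 °C; resistance confirmed by regrowth on drug plates. Frequency = resistant colonies ÷ total cells plated, counted from dilutions of overnight culture on LB.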

K. pneumoniae ATCC 13883 = test: Spontaneous frequency of resistance; details: 4 X MIC, 24 h
Procedure, shortened: as §1

P. aeruginosa ATCC 27853 = test: Spontaneous frequency of resistance; details: 24 h
Procedure, shortened: as §1

[4] = test system: E. coli ATCC 25922, K. pneumoniae ATCC 13883, and P. aeruginosa ATCC 27853; test: Spontaneous frequency of resistance, three strains summarised
Protocol: Spontaneous Resistance Frequency was determined in vitro for GSK2251052 and the resistance mutants in E. coli ATCC 25922, K. pneumoniae ATCC 13883, and P. aeruginosa ATCC 27853 strains were characterized. GSK2251052 was prepared as described in U.S. Pat. No. 7,816,344 (the entire contents of which are hereby incorporated by reference herein). LB broth, Mueller Hinton II broth (adjusted), and Difco noble agar were obtained from Becton Dickinson (Cockeysville, Md., USA). M9 minimal broth containing 1×M9 salt, 0.5 μg/ML thiamine, 1 mM MgSO4, 0.1 mM CaCl2, 2% glucose, was obtained from Teknova (Hollister, Calif., USA). Antibacterial agents ciprofloxacin, ceftazidime, chloramphenicol, gentamycin, kanamycin, polymixin B, tobramycin and trimethoprim, and amino acids were obtained from Sigma Chemicals (St. Louis, Mo., USA). Strains were obtained from ATCC (Manassas, Va., USA).
Selection of resistance to GSK2251052 was attempted by spreading various amounts of bacteria onto MHBII noble agar plates containing 4×MIC (minimum inhibitory concentration) or 10×MIC of GSK2251052. Colonies were counted after 24 hours and 48 hours incubation at 37° C. […] Frequency of resistance was determined by dividing the number of resistant mutants by the total number of cells plated as determined by plating dilutions of the overnight culture on LB plates.

[5] = test system: E. coli ATCC 25922 wild type and mutants; test: MIC, wild type and GSK2251052 resistant mutants; details: Escherichia coli
Procedure, shortened: (§2)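 MICs were determined following CLSI M7-A7 recommendations for aerobic bacteria. Strains were E. coli ATCC 25922, K. pneumoniae ATCC 13883, P. aeruginosa ATCC 27853 and six to ten laboratory-selected GSK2251052-resistant colonies of each, carrying mutations in the LeuRS editing domain.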

[6] = test system: K. pneumoniae ATCC 13883 wild type and mutants; test: MIC, wild type and GSK2251052 resistant mutants; details: Klebsiella pneumoniae
Procedure, shortened: as §2

[7] = test system: P. aeruginosa ATCC 27853 wild type and mutants; test: MIC, wild type and GSK2251052 resistant mutants; details: Pseudomonas aeruginosa
Procedure, shortened: as §2

[8] = test system: clinical isolates from the four subjects (E. coli, P. mirabilis, K. pneumoniae); test: Resistance in clinical isolates of the phase II clinical trial
Protocol: A comparative, dose-ranging study of GSK2251052 vs. imipenem-cilastatin in complicated lower urinary tract infection and pyelonephritis was undertaken with 210 targeted patients (20 actually enrolled) in a phase II clinical trial. The study was designed to determine the appropriate and safe dose for Phase III trials. Doses were 750 mg or 1500 mg twice a day, compared to an active comparator, with an independent safety review committee.
The phase II clinical trial identified four subjects who developed spontaneous resistance to GSK2251052 as evidenced by increased MICs (>32-fold) determined for the clinical isolates from the four subjects. Two of the resistant mutant strains identified were E. coli strains, one was a P. mirabilis strain, and one was a K. pneumoniae strain.

[9] = GSK2251052 breakpoint, read-out: susceptibility category of MIC90
[10] = read-out: susceptibility category of MIC90

## NC[C@H]1OB(O)c2c(OCCCO)cccc21 [GSK2251052, (S)-3-aminomethyl-7-(3-hydroxy-propoxy)-3h-benzo[c][1,2]oxaborol-1-ol]
Enterobacteriaceae; 2029 isolates, read-out: MIC90
  MIC90: 1 µg/mL (≈ 4.22 µM)
Enterobacteriaceae; [9]
  susceptibility category of MIC90: < 4 µg/mL
E. coli (ESBL)
  MIC90: 1 µg/mL (≈ 4.22 µM)
E. coli (ESBL); [10]
  MIC90: < 4 µg/mL
[1]; 199 isolates, read-out: MIC90
  MIC90: 1 µg/mL (≈ 4.22 µM)
[1]; [9]
  susceptibility category of MIC90: < 4 µg/mL
[2]; 202 isolates, read-out: MIC90
  MIC90: 1 µg/mL (≈ 4.22 µM)
[2]; [9]
  susceptibility category of MIC90: < 4 µg/mL
[3]
  MIC90: 1 µg/mL (≈ 4.22 µM)
[3]; [10]
  MIC90: < 4 µg/mL
Proteus vulgaris (WT); 41 isolates, read-out: MIC90
  MIC90: 1 µg/mL (≈ 4.22 µM)
Proteus vulgaris (WT); [9]
  susceptibility category of MIC90: < 4 µg/mL
Providencia spp.(all); 68 isolates, read-out: MIC90
  MIC90: 1 µg/mL (≈ 4.22 µM)
Providencia spp.(all); [9]
  susceptibility category of MIC90: < 4 µg/mL
S. marcescens (AmpC)
  MIC90: 1 µg/mL (≈ 4.22 µM)
S. marcescens (AmpC); [10]
  MIC90: < 4 µg/mL
E. coli ATCC 25922
  Frequency of Resistance: 8 × 10^−8 and 6 × 10^−8 and 7 × 10^−8
K. pneumoniae ATCC 13883
  Frequency of Resistance: 4 × 10^−8 and 5 × 10^−8 and 8 × 10^−7
P. aeruginosa ATCC 27853; 4 X MIC
  Frequency of Resistance: 1 × 10^−7 and 2 × 10^−7
P. aeruginosa ATCC 27853; 10 X MIC
  Frequency of Resistance: 5 × 10^−8 and 9.6 × 10^−8
[4]; measured at 24 h
  frequency of resistance, range: 10^−7 to 10^−8
[4]; three ATCC strains, 24 h and 48 h time points
  frequency of resistance, range: 10^−7 to 10^−8
[5]; ATCC25922, E wt, leuRS mutation none, read-out: MIC
  MIC: 1 µg/mL (≈ 4.22 µM)
[5]; ATCC25922, E. coli WT, read-out: GSK2251052 MIC
  MIC: 1 µg/mL (≈ 4.22 µM)
[5]; ATCC25922, mutant E101, leuRS Y246H
  MIC: 64 µg/mL (≈ 270 µM)
[5]; ATCC25922, mutant E102, leuRS D345G
  MIC: 256 µg/mL (≈ 1080 µM)
[5]; ATCC25922, mutant E103, leuRS D345G (ditto mark)
  MIC: 256 µg/mL (≈ 1080 µM)
[5]; ATCC25922, mutant E104, leuRS Y246H
  MIC: 64 µg/mL (≈ 270 µM)
[5]; ATCC25922, mutant E105, leuRS D345G
  MIC: 256 µg/mL (≈ 1080 µM)
[5]; ATCC25922, mutant E106, leuRS D345G
  MIC: 256 µg/mL (≈ 1080 µM)
[5]; ATCC25922, mutant E107, leuRS G229S
  MIC: > 256 µg/mL
[5]; ATCC25922, mutant E108, leuRS D345G
  MIC: 256 µg/mL (≈ 1080 µM)
[5]; ATCC25922, mutant E109, leuRS D345G (ditto mark)
  MIC: 256 µg/mL (≈ 1080 µM)
[5]; ATCC25922, mutant E110, leuRS Duplication D345 Y346
  MIC: > 256 µg/mL
[6]; ATCC13883, K wt, leuRS mutation none, read-out: MIC
  MIC: 1 µg/mL (≈ 4.22 µM)
[6]; ATCC13883, K. pneumoniae WT, read-out: GSK2251052 MIC
  MIC: 1 µg/mL (≈ 4.22 µM)
[6]; ATCC13883, mutant K104, leuRS D345Y
  MIC: > 256 µg/mL
[6]; ATCC13883, mutant K105, leuRS G229R
  MIC: > 256 µg/mL
[6]; ATCC13883, mutant K107, leuRS S227F
  MIC: 256 µg/mL (≈ 1080 µM)
[6]; ATCC13883, mutant K108, leuRS T248P
  MIC: > 256 µg/mL
[6]; ATCC13883, mutant K109, leuRS T248P (ditto mark)
  MIC: > 256 µg/mL
[6]; ATCC13883, mutant K110, leuRS V338L
  MIC: 256 µg/mL (≈ 1080 µM)
[7]; ATCC27853, P wt, leuRS mutation none, read-out: MIC
  MIC: 4 µg/mL (≈ 16.9 µM)
[7]; ATCC27853, P. aeruginosa WT, read-out: GSK2251052 MIC
  MIC: 4 µg/mL (≈ 16.9 µM)
[7]; ATCC27853, mutant P101, leuRS T256P
  MIC: 128 µg/mL (≈ 540 µM)
[7]; ATCC27853, mutant P102, leuRS T256P (ditto mark)
  MIC: 32 µg/mL (≈ 135 µM)
[7]; ATCC27853, mutant P103, leuRS T256P (ditto mark)
  MIC: 64 µg/mL (≈ 270 µM)
[7]; ATCC27853, mutant P104, leuRS T256P (ditto mark)
  MIC: 128 µg/mL (≈ 540 µM)
[7]; ATCC27853, mutant P105, leuRS T256P (ditto mark)
  MIC: 128 µg/mL (≈ 540 µM)
[7]; ATCC27853, mutant P106, leuRS V342M
  MIC: > 256 µg/mL
[7]; ATCC27853, mutant P107, leuRS V342M (ditto mark)
  MIC: 128 µg/mL (≈ 540 µM)
[7]; ATCC27853, mutant P108, leuRS T252P
  MIC: 128 µg/mL (≈ 540 µM)
[7]; ATCC27853, mutant P109, leuRS V342M
  MIC: 128 µg/mL (≈ 540 µM)
[7]; ATCC27853, mutant P110, leuRS V342M (ditto mark)
  MIC: > 256 µg/mL
[8]; baseline isolates tested
  rates of spontaneous resistance: ~10^−7
[8]; four subjects who developed spontaneous resistance, phase II trial
  increase of MICs in clinical isolates: > 32 fold
